Test results: patent US9000032B2, “Substituted cyclopentenes as therapeutic agents” (Allergan, Inc., priority 2013, dated 2015)

What was measured:
[1] = biological target: T1, hEP2/Gqs5 (Homo sapiens, UniProt P43116); experiment: FLIPR calcium signal, EP2; assay type: cell-based; settings: HEK-293(EBNA) hEP2/Gqs5, read-out: EP2 Ca2+ EC50
T1 construct: expressed in transfected cells
Procedure: (§1) HEK-293(EBNA) cells, stably expressing one type or subtype of recombinant human prostaglandin receptors (prostaglandin receptors expressed: hDP/Gqs5; hEP1, hEP2/Gqs5; hEP3A/Gqi5; hEP4/Gqs5; hFP; hIP; hTP), were cultured in 100 mm culture dishes in high-glucose DMEM medium containing 10% fetal bovine serum, 2 mM I-glutamine, 250 μg/ml geneticin (G418) and 200 μg/ml hygromycin B as selection markers, and 100 units/ml penicillin G, 100 μg/ml streptomycin and 0.25 μg/ml amphotericin B.
(§2) Cells were seeded at a density of 5×10^4 cells per well in Biocoat® Poly-D-lysine-coated black-wall, clear-bottom 96-well plates (Becton-Dickinson) and allowed to attach overnight in an incubator at 37° C. Cells were then washed two times with HBSS-HEPES buffer (Hanks Balanced Salt Solution without bicarbonate and phenol red, 20 mM HEPES, pH 7.4) using a Denley Cellwash plate washer (Labsystems). After 45 minutes of dye-loading in the dark, using the calcium-sensitive dye Fluo-4 AM at a final concentration of 2 μM, plates were washed four times with HBSS-HEPES buffer to remove excess dye leaving 100 μl, in each well. Plates were re-equilibrated to 37° C. for a few minutes.
(§3) Cells were excited with an Argon laser at 488 nm, and emission was measured through a 510-570 nm bandwidth emission filter (FLIPR™, Molecular Devices, Sunnyvale, Calif.). Drug solution was added in a 50 μL volume to each well to give the desired final concentration. The peak increase in fluorescence intensity was recorded for each well. On each plate, four wells each served as negative (HBSS-HEPES buffer) and positive controls (standard agonists: BW245C (hDP); PGE2(hEP1, hEP2/Gqs5; hEP3A/Gqi5; hEP4/Gqs5); PGF2α (hFP); carbacyclin (hIP); U-46619 (hTP), depending on receptor). The peak fluorescence change in each drug-containing well was then expressed relative to the controls.
(§4) Compounds were tested in a high-throughput (HTS) or concentration-response (CoRe) format. In the HTS format, forty-four compounds per plate were examined in duplicates at a concentration of 10^−5 M. To generate concentration-response curves, four compounds per plate were tested in duplicates in a concentration range between 10^−5 and 10^−11. The duplicate values were averaged. In either, HTS or CoRe format each compound was tested on at least 3 separate plates using cells from different passages to give an n≧3.

[2] = biological target: T2, EP4 receptors (Homo sapiens, UniProt P35408); experiment: Radioligand binding, [3H]PGE2, EP4; settings: [3H]PGE2 competition, HEK-293 cells expressing EP4; read-out: EP4 Ki EC50
T2 construct: expressed in transfected cells; membrane fraction
Procedure: (§5) HEK-293 cells stably expressing the human or feline FP receptor, or EP1, EP2, or EP4 receptors were washed with TME buffer, scraped from the bottom of the flasks, and homogenized for 30 sec using a Brinkman PT 10/35 polytron. TME buffer was added to achieve a final 40 ml volume in the centrifuge tubes (the composition of TME is 100 mM TRIS base, 20 mM MgCl2, […]; ION HCl is added to achieve a pH of 7.4).
(§6) The cell homogenate was centrifuged at 19000 rpm for 20 min at 4° C. using a Beckman Ti-60 rotor. The resultant pellet was resuspended in TME buffer to give a final 1 mg/ml protein concentration, as determined by Biorad assay. Radioligand binding competition assays vs. [^3H-]17-phenyl PGF2α (5 nM) were performed in a 100 μl volume for 60 min. Binding reactions were started by adding plasma membrane fraction. The reaction was terminated by the addition of 4 ml ice-cold TRIS-HCl buffer and rapid filtration through glass fiber GF/B filters using a Brandel cell harvester. The filters were washed 3 times with ice-cold buffer and oven dried for one hour.
(§7) [^3H-] PGE2 (specific activity 180 Ci mmol) was used as the radio ligand for EP receptors. [^3H] 17-phenyl PGF2α was employed for FP receptor binding studies. Binding studies employing EP1, EP2, EP4 and FP receptors were performed in duplicate in at least three separate experiments. A 200 μl assay volume was used. Incubations were for 60 min at 25° C. and were terminated by the addition of 4 ml of ice-cold 50 mM TRIS-HCl, followed by rapid filtration through Whatman GF/B filters and three additional 4 ml washes in a cell harvester (Brandel). Competition studies were performed using a final concentration of 5 nM [^3H]-PGE2, or 5 nM [^3H] 17-phenyl PGF2α and non-specific binding determined with 10^−5 M of unlabeled PGE2, or 17-phenyl PGF2α according to receptor subtype studied.

[3] = biological target: T3, hEP4/Gqs5 (Homo sapiens, UniProt P35408); experiment: FLIPR calcium signal, EP4; assay type: cell-based; settings: HEK-293(EBNA) hEP4/Gqs5, read-out: EP4 Ca2+ EC50
T3 construct: expressed in transfected cells
Procedure: as §1, §2, §3
(§8) Compounds were tested in a high-throughput (HTS) or concentration-response (CoRe) format. […]

[4] = biological target: T4, hDP/Gqs5 (Homo sapiens, UniProt Q13258); experiment: FLIPR calcium signal, DP; assay type: cell-based; settings: NA listed after 'NA:', read-out: OTHER RECEPTORS Ca2+ EC50: DP
T4 construct: expressed in transfected cells
T4 sequence (Q13258 1-359): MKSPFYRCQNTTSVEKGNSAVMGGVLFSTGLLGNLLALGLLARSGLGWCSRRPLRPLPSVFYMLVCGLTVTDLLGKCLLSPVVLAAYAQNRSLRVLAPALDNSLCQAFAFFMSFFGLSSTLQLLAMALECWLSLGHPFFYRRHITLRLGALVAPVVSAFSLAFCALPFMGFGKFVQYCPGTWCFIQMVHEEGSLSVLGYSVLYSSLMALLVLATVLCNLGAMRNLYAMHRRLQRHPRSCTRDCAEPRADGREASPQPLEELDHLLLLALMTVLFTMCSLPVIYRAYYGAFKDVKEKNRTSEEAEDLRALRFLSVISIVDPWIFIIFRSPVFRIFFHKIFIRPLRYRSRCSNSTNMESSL
Procedure: as §1, §2, §3, §8

[5] = biological target: T5, EP2 (Homo sapiens, UniProt P43116); experiment: cAMP assay, HEK-EBNA cells expressing EP2; assay type: cell-based; set-up: expressed in transfected cells; host or cells: HEK-EBNA cells
Procedure: A 384-well drug plate was prepared to contain 6 test compounds, PGE2 and cAMP in 16 serial dilutions in triplicate, using a Biomek station. HEK-EBNA cells expressing a target PG receptor subtype (EP2 or EP4) were suspended in a stimulation buffer (HBSS, 0.1% BSA, 0.5 mM IBMX and 5 mM HEPES, pH 7.4) in a density of 10^4 cells/5 μL. The reaction was initiated by mixing 5 μL drug dilutions with 5 μL of HEK-EBNA cells in a well, carried out for 30 min at room temperature, and followed by the addition of 5 μL anti-cAMP acceptor beads in the control buffer with Tween-20 (25 mM NaCl, 0.03% Tween-20, 5 mM HEPES, pH 7.4). After 30 min in the dark at room temperature, the mixtures were incubated with 15 μL biotinylated-cAMP/strepavidin donor beads in Lysis/Detection buffer (0.1% BSA, 0.3% Tween-20 and 5 mM HEPES, pH 7.4) for 45 min at the room temperature. Fluorescence changes were read using a Fusion-alpha HT microplate reader.

[6] = biological target: T5, EP2; experiment: Competition radioligand binding, [3H]PGE2, EP2; set-up: expressed in transfected cells; membranes or whole cells; settings: [3H]PGE2 competition, HEK 293 cells expressing human EP2
Procedure: Competition binding experiments were performed in a medium containing Hank's balanced salt solution, Hepes 20 mM, pH 7.3, membranes (˜[…] protein) or 2×10^5 cells from HEK 293 cells stably expressing human EP2 receptors, [^3H]PGE2 (10 nM) and various concentrations of test compounds in a total volume of 300 μl. Reaction mixtures were incubated at 23° C. for 60 min, and were filtered over Whatman GF IB filters under vacuum. Filters were washed three times with 5 ml ice-cold buffer containing 50 mM Tris/HCl (PH 7.3). Non-specific binding was estimated in the presence of excess unlabeled PGE2 (10 μM). Binding data fitted to the binding model for a single class of binding sites, using nonlinear regression analysis. IC50 values thus obtained were converted to Ki using the equation of Ki=(IC50/(1+[L]/KD) where [L] represents PGE2 concentration (10 nM) and KD the dissociation constant for [^3H]PGE2 at human EP2 receptors (40 nM).
as §5, §6, §7

[7] = biological target: T6, hEP3A/Gqi5 (Homo sapiens, UniProt P43115); experiment: FLIPR calcium signal, EP3; assay type: cell-based; settings: read-out: OTHER RECEPTORS Ca2+ EC50: EP3
T6 construct: expressed in transfected cells
T6 sequence (P43115 1-390): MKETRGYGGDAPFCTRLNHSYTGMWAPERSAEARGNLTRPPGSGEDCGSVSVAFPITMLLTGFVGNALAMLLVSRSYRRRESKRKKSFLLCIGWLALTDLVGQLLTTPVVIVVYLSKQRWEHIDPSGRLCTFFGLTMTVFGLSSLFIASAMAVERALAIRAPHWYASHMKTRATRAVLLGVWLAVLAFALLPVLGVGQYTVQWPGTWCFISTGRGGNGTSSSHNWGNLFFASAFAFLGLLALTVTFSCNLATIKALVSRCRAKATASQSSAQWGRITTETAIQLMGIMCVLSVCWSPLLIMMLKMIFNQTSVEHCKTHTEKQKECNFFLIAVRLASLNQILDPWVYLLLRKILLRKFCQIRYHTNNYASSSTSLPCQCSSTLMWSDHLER
Procedure: as §1, §2, §3, §4

T3 sequence (P35408 whole entry): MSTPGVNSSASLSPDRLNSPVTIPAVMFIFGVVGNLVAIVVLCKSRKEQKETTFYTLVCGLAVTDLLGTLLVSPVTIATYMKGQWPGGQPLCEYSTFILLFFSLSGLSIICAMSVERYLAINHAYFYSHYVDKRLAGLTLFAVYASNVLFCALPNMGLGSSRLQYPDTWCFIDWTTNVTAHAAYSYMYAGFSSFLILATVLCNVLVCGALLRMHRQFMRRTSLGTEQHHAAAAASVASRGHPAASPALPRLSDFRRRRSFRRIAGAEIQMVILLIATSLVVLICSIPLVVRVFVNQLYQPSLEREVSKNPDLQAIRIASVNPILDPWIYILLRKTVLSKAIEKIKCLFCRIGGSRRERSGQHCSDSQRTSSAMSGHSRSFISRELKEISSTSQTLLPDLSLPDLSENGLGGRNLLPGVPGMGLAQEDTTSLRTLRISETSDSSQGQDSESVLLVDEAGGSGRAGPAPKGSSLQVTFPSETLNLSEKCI
T2 sequence (P35408 whole entry): as above
T1 sequence (P43116 whole entry): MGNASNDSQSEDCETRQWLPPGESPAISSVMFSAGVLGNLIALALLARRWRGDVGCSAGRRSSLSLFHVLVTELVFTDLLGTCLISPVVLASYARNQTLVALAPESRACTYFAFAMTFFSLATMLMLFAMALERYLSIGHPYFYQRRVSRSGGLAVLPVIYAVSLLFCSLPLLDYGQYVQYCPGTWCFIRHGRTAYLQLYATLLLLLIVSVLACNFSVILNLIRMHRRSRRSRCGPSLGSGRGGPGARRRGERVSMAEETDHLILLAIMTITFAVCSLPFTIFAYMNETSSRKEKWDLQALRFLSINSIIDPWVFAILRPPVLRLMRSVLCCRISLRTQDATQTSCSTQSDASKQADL
T5 sequence (P43116 whole entry): as above

Row | EC50 [1] [µM] | Ki [2] [µM] | EC50 [3] [µM] | EC50 [4] [µM] | EC50 [5] [µM] | Ki [6] [µM] | EC50 [7] [µM] | SMILES
1 | 0.048 | 2.82 | > 10 | 7.73 | 0.0002 | 0.002 | 0.171 | C#CC1=C(c2ccc(C(O)CCCCC)cc2)[C@@H](CCCc2ccc(C(=O)O)s2)CC1 (single isomer, unassigned) [compound 1]
2 | 0.0005 | 0.783 | > 10 | 0.22 | 0.0015 | 0.017 | 7.4 | CCCCCC(O)c1ccc(C2=C(C#CCO)CC[C@@H]2CCCc2ccc(C(=O)O)s2)cc1 (stereo partly shown) [compound 3]
3 | 0.022 | 0.712 | – | > 10 | – | 0.007 | 1.54 | C#CC1=C(c2ccc(C(O)CCCCC)cc2)[C@@H](CCCc2ccc(C(=O)O)s2)CC1 (single isomer, unassigned) [compound 2]
4 | 0.513 | 8.19 | > 10 | – | 0.14 | 2.53 | 7.08 | CCCCCC(O)c1ccc(C2=C(C#Cc3ccccc3)CC[C@@H]2CCCc2ccc(C(=O)O)s2)cc1 (stereo partly shown) [compound 4]
